Measurements reported in publication PMC10183817, “Inhibition of ATP synthase reverse activity restores energy homeostasis in mitochondrial pathologies” (The EMBO Journal, 2023).

Key:
[1] = target: T1, mitochondrial ATP synthase (F1F0ATPase, Complex V, CV) (Mus musculus, UniProt P56480+Q03265); test: acidification rate (Seahorse XF96), isolated heart mitochondria; type: biochemical; settings: ATP 20 mM; pH 7.2; oligomycin-sensitive
T1 construct: gene Atp5f1a; native fully assembled complex in isolated mouse heart mitochondria (frozen/thawed, or separated by blue native gel); with ATP synthase F(1) complex subunit gamma, mitochondrial; ATP synthase F(1) complex subunit delta, mitochondrial; ATP synthase F(1) complex subunit epsilon, mitochondrial; ATP synthase peripheral stalk subunit OSCP, mitochondrial; ATP synthase peripheral stalk subunit b, mitochondrial; ATP synthase peripheral stalk subunit d, mitochondrial; ATP synthase peripheral stalk subunit F6, mitochondrial; ATP synthase F(0) complex subunit a; ATP synthase F(0) complex subunit 8; ATP synthase F(0) complex subunit C1, mitochondrial

[2] = target: T2, purified bovine CV (Complex V, F-type ATP synthase) (Bos taurus, UniProt P00829+P19483); test: in-gel ATP hydrolysis, blue native gel, purified CV; type: biochemical; settings: monomer, tetramer and oligomers, also F1 subcomplex; independent of the ATPIF1 amount
T2 construct: gene ATP5F1A; native purification from bovine heart; monomer (LMNG), tetramer (GDN) and oligomer preparations; with ATP synthase F(1) complex subunit gamma, mitochondrial; ATP synthase F(1) complex subunit delta, mitochondrial; ATP synthase F(1) complex subunit epsilon, mitochondrial; ATP synthase peripheral stalk subunit OSCP, mitochondrial; ATP synthase peripheral stalk subunit b, mitochondrial; ATP synthase peripheral stalk subunit d, mitochondrial; ATP synthase peripheral stalk subunit F6, mitochondrial; ATP synthase F(0) complex subunit a; ATP synthase F(0) complex subunit 8; ATP synthase F(0) complex subunit C1, mitochondrial

[3] = target: T1, mitochondrial ATP synthase (F1F0ATPase, Complex V, CV); test: HyFS: acidification rate (Seahorse XF96), frozen heart mitochondria; type: biochemical; settings: EPI 100 nM; ATP 20 mM; pH 7.2; MAS buffer; partial inhibition, ATP synthesis not impaired
[4] = target: T2, purified bovine CV (Complex V, F-type ATP synthase); test: competition with ATPIF1-GFP for CV tetramer, blue native gel fluorescence; settings: indirect binding read-out; prevents ATPIF1-GFP binding, does not displace bound ATPIF1; room temperature

SMILES | acidification rate (Seahorse XF96), isolated heart mitochondria [1] | in-gel ATP hydrolysis, blue native gel, purified CV [2] | % inhibition [3] | competition with ATPIF1-GFP for CV tetramer, blue native gel fluorescence [4]
Nc1ncnc2c1ncn2[C@@H]1O[C@H](COP(=O)(O)OP(=O)(O)OP(=O)(O)O)[C@@H](O)[C@H]1O [ATP] | addition of ATP resulted in a sharp increase in proton release that was oligomycin sensitive |  |  | 
Oc1cc(O)c2c(c1)O[C@@H](c1ccc(O)c(O)c1)[C@@H](O)C2 [EPI, (+)-Epicatechin] |  | We found that EPI inhibited ATP hydrolysis independently of the amount of ATPIF1 | ~ 30% | In both purified tetramers and isolated mitochondria, EPI prevented the binding of ATPIF1‐GFP
